In US20230365541A1, “INHIBITOR OF ENHANCER OF ZESTE HOMOLOGUE 2, AND USE THEREOF” (HAISCO PHARMACEUTICALS PTE. LTD., priority 2020, published 2023) one finds IC50 data, which are given here for 18 compounds.

In this assay the target is EZH2 (Homo sapiens (Human), UniProt Q15910). Briefly: Test method for EZH2 enzyme activity. The format is biochemical. Particulars: H3K27(21-44) and [3H]-SAM. The procedure: The compounds were dissolved in DMSO, formulated into 10 mM solutions and serially diluted with DMSO to obtain 100-fold the final concentration. 200 nL of the solutions of the compounds was transferred to a 384-well plate (Perkin Elmer, Cat. No. 6007299) by using Echo550. EZH2 (BPS, Cat. No. 51004) was diluted with 1×assay buffer (50 mM Tris-HCl 9.0, 0.01% Tween-20, 1 mM DTT) to 2-fold the final concentration (EZH2: 3 nM). A mixed solution of H3K27(21-44) and [3H]-SAM (PerkinElmer, Lot. No. 2146246) (H3K27(21-44): 200 nM, [3H]-SAM: 100 nM) was formulated. The EZH2 diluted solution was taken and added to the 384-well plate at 10 μL/well (10 μL of 1×assay buffer was added in the control group). The plate was sealed and then incubated at room temperature for 15 minutes. 10 μL of the mixed solution of H3K27 (21-44) and [3H]-SAM was added to each well. The plate was sealed and then incubated at room temperature for 60 minutes. 50 μM of SAM (Sigma, Cat. No. A7007) was formulated at low temperature and added to the 384-well plate at 10 μL/well. The sample was taken at 25 μL/well, transferred to a flashplate and incubated at room temperature for at least 1 hour. The flashplate was washed 3 times with a plate washing liquid (dH2O+0.1% Tween-20) and read by using Microbeta. The inhibition rate was calculated in Excel according to: inhibition rate (%)=(maximum valuepositive control−detection signal value)/(maximum valuepositive control−minimum valuenegative control)*100, and IC50 values were fitted by using XL-Fit.
EZH2, sequence (Q15910 other isoform, or with tags, fused parts or gaps isoform Q15910-2): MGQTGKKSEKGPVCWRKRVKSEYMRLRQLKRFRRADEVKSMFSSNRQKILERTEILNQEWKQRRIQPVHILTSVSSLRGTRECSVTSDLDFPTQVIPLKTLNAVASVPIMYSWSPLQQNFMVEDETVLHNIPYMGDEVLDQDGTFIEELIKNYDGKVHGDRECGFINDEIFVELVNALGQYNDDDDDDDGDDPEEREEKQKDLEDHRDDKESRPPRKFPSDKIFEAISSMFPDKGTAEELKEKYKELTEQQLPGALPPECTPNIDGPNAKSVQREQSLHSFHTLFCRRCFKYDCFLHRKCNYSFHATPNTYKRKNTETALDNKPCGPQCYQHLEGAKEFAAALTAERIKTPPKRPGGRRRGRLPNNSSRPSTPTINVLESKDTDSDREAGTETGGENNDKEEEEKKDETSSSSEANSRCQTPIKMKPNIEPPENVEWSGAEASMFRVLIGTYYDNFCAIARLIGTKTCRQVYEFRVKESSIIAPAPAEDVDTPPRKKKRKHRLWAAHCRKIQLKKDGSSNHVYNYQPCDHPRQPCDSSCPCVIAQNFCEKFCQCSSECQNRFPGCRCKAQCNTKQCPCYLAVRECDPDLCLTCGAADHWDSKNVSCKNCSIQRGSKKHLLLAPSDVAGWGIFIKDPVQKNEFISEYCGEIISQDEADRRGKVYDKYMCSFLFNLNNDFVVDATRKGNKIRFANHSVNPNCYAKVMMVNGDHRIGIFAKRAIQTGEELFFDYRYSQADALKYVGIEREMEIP
EZH2, sequence (O75530 2-441 partner): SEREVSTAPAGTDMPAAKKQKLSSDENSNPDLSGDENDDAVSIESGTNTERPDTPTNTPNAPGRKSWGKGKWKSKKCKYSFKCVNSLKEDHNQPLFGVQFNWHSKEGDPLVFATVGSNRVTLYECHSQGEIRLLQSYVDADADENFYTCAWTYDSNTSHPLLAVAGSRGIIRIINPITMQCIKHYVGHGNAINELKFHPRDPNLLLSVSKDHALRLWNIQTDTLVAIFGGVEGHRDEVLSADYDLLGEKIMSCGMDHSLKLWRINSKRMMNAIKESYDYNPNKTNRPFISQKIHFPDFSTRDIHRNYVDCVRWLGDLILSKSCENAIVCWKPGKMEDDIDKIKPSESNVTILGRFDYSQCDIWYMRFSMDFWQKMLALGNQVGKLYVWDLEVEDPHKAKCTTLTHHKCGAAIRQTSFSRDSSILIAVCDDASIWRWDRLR
EZH2, sequence (Q15022 2-739 partner): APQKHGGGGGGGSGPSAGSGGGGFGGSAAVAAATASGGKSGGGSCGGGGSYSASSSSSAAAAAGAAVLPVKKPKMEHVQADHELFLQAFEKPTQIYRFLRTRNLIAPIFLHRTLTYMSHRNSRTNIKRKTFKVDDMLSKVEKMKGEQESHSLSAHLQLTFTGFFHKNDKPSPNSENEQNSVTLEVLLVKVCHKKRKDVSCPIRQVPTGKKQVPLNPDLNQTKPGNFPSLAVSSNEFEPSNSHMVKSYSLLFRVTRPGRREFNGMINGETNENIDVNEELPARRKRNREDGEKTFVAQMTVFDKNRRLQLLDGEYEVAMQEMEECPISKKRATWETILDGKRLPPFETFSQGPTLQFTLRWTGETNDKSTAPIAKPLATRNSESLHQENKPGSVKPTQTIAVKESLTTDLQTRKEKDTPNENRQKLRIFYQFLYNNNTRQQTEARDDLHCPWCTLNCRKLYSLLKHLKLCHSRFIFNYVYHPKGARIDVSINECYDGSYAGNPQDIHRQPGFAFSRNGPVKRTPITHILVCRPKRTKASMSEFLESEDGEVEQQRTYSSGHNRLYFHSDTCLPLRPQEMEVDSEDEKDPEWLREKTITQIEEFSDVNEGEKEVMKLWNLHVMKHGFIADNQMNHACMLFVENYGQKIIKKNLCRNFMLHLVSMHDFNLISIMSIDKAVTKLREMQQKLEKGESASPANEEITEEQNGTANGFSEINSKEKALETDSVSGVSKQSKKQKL
EZH2, sequence (Q09028 2-425 partner): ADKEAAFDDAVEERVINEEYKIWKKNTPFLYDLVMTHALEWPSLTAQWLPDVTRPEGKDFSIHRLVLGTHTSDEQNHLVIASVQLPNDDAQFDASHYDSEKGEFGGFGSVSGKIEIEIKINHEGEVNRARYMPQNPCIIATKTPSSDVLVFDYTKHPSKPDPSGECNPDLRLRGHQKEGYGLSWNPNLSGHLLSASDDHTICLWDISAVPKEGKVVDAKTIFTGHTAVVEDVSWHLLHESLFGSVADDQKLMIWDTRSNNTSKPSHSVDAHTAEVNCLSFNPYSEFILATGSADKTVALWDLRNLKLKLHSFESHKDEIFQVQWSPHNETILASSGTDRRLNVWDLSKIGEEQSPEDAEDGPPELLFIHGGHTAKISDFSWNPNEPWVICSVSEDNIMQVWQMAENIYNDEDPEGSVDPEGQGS
EZH2, sequence (Q6ZN18 whole entry partner): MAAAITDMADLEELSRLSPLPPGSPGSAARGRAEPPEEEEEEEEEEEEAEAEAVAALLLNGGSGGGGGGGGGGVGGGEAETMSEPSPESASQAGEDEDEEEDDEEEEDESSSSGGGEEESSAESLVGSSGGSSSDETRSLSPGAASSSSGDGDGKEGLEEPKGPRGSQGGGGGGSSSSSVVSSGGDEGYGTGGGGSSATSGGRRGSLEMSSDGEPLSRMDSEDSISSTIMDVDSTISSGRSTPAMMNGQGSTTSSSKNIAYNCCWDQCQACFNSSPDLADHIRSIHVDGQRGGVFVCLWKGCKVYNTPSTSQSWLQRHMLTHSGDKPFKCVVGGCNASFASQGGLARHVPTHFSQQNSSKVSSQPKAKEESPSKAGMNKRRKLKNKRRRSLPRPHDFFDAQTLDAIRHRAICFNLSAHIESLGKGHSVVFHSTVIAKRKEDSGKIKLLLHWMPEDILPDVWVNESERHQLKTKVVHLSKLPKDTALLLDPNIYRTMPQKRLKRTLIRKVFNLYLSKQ

Structures can show the parent of a compound that is named as a salt.

What is called IC50 is the point on the concentration scale where inhibition reaches its midpoint. `CSc1cc(C)[nH]c(=O)c1CNC(=O)c1cc(Cl)c2c(c1C)OC(C)(C1CCC(N3CC(N(C)C)C3)CC1)O2` (single isomer, unassigned) [Compound 1, isomer 2, 7-chloro-2-(4-(3-(dimethylamino)azetidin-1-yl)cyclohexyl)-2,4-dimethyl-N-((6-methyl-4-(methylthio)-2-oxo-1,2-dihydropyridin-3-yl)methyl)benzo[d][1,3]dioxole-5-carboxamide]: the half-maximal inhibitory concentration (IC50) is 600 pM. Under `CSc1cc(C)[nH]c(=O)c1CNC(=O)c1cc(Cl)c2c(c1C)OC(C)(C1CCC(N3CC(C#N)C3)CC1)O2` (single isomer, unassigned) [Compound 2, isomer 1, 7-chloro-2-(4-(3-cyanoazetidin-1-yl)cyclohexyl)-2,4-dimethyl-N-((6-methyl-4-(methylthio)-2-oxo-1,2-dihydropyridin-3-yl)methyl)benzo[d][1,3]dioxole-5-carboxamide] stands 920 pM. The compound `CSc1cc(C)[nH]c(=O)c1CNC(=O)c1cc(Cl)c2c(c1C)OC(C)(C1CCC(N3CC(C#N)C3)CC1)O2` (single isomer, unassigned) [Compound 2, isomer 2, 7-chloro-2-(4-(3-cyanoazetidin-1-yl)cyclohexyl)-2,4-dimethyl-N-((6-methyl-4-(methylthio)-2-oxo-1,2-dihydropyridin-3-yl)methyl)benzo[d][1,3]dioxole-5-carboxamide] showed an IC50 of 720 pM.

The compound `CSc1cc(C)[nH]c(=O)c1CNC(=O)c1cc(Cl)c2c(c1C)OC(C)([C@H]1CC[C@@H](NCC3(C)COC3)CC1)O2` (single isomer, unassigned) [Compound 3, isomer 1, 7-chloro-2,4-dimethyl-N-((6-methyl-4-(methylthio)-2-oxo-1,2-dihydropyridin-3-yl)methyl)-2-(4-(((3-methyloxetan-3-yl)methyl)amino)cyclohexyl)benzo[d][1,3]dioxole-5-carboxamide trifluoroacetate] registered an IC50 of 650 pM. Under `CSc1cc(C)[nH]c(=O)c1CNC(=O)c1cc(Cl)c2c(c1C)OC(C)([C@H]1CC[C@@H](NCC3(C)COC3)CC1)O2` (single isomer, unassigned) [Compound 3, isomer 2, 7-chloro-2,4-dimethyl-N-((6-methyl-4-(methylthio)-2-oxo-1,2-dihydropyridin-3-yl)methyl)-2-(4-(((3-methyloxetan-3-yl)methyl)amino)cyclohexyl)benzo[d][1,3]dioxole-5-carboxamide trifluoroacetate] stands 510 pM. `CSc1cc(C)[nH]c(=O)c1CNC(=O)c1cc(Cl)c2c(c1C)OC(C)(C1CCN(C(=O)C3CC(F)(F)C3)CC1)O2` (single isomer, unassigned) [Compound 5, isomer 1, 7-chloro-2-(1-(3,3-difluorocyclobutane-1-carbonyl)piperidin-4-yl)-2,4-dimethyl-N-((6-methyl-4-(methylthio)-2-oxo-1,2-dihydropyridin-3-yl)methyl)benzo[d][1,3]dioxole-5-carboxamide] registered an IC50 of 580 pM. Next, `CSc1cc(C)[nH]c(=O)c1CNC(=O)c1cc(Cl)c2c(c1C)OC(C)([C@H]1CC[C@@H](NC(=O)C3CC(F)(F)C3)CC1)O2` (single isomer, unassigned) [Compound 6, isomer 1, 7-chloro-2-(4-(3,3-difluorocyclobutane-1-carboxamido)cyclohexyl)-2,4-dimethyl-N-((6-methyl-4-(methylthio)-2-oxo-1,2-dihydropyridin-3-yl)methyl)benzo[d][1,3]dioxole-5-carboxamide]: 520 pM; `CSc1cc(C)[nH]c(=O)c1CNC(=O)c1cc(Cl)c2c(c1C)OC(C)([C@H]1CC[C@@H](NC(=O)C3CC(F)(F)C3)CC1)O2` (single isomer, unassigned) [Compound 6, isomer 2, 7-chloro-2-(4-(3,3-difluorocyclobutane-1-carboxamido)cyclohexyl)-2,4-dimethyl-N-((6-methyl-4-(methylthio)-2-oxo-1,2-dihydropyridin-3-yl)methyl)benzo[d][1,3]dioxole-5-carboxamide]: 640 pM; `CSc1cc(C)[nH]c(=O)c1CNC(=O)c1cc(Cl)c2c(c1C)OC(C)(C1CCN(C(=O)C3CC3)CC1)O2` (single isomer, unassigned) [Compound 7, isomer 1, 7-chloro-2-(1-(cyclopropanecarbonyl)piperidin-4-yl)-2,4-dimethyl-N-((6-methyl-4-(methylthio)-2-oxo-1,2-dihydropyridin-3-yl)methyl)benzo[d][1,3]dioxole-5-carboxamide]: 520 pM. Next, `CSc1cc(C)[nH]c(=O)c1CNC(=O)c1cc(Cl)c2c(c1C)OC(C)(C1CCC(c3cnn(C)c3)CC1)O2` (single isomer, unassigned) [Compound 8, isomer 1, 7-chloro-2,4-dimethyl-2-(4-(1-methyl-1H-pyrazol-4-yl)cyclohexyl)-N-((6-methyl-4-(methylthio)-2-oxo-1,2-dihydropyridin-3-yl)methyl)benzo[d][1,3]dioxole-5-carboxamide]: 510 pM; `CSc1cc(C)[nH]c(=O)c1CNC(=O)c1cc(Cl)c2c(c1C)OC(C)(C1CCC(c3cnn(C)c3)CC1)O2` (single isomer, unassigned) [Compound 8, isomer 2, 7-chloro-2,4-dimethyl-2-(4-(1-methyl-1H-pyrazol-4-yl)cyclohexyl)-N-((6-methyl-4-(methylthio)-2-oxo-1,2-dihydropyridin-3-yl)methyl)benzo[d][1,3]dioxole-5-carboxamide]: 900 pM; `CO[C@H]1C[C@H](NC2CCC(C3(C)Oc4c(Cl)cc(C(=O)NCc5c(SC)cc(C)[nH]c5=O)c(C)c4O3)CC2)C1` (single isomer, unassigned) [Compound 9, isomer 1, 7-chloro-2-(4-((trans-3-methoxycyclobutyl)amino)cyclohexyl)-2,4-dimethyl-N-((6-methyl-4-(methylthio)-2-oxo-1,2-dihydropyridin-3-yl)methyl)benzo[d][1,3]dioxole-5-carboxamide]: 810 pM. Next, `CO[C@H]1C[C@H](NC2CCC(C3(C)Oc4c(Cl)cc(C(=O)NCc5c(SC)cc(C)[nH]c5=O)c(C)c4O3)CC2)C1` (single isomer, unassigned) [Compound 9, isomer 2, 7-chloro-2-(4-((trans-3-methoxycyclobutyl)amino)cyclohexyl)-2,4-dimethyl-N-((6-methyl-4-(methylthio)-2-oxo-1,2-dihydropyridin-3-yl)methyl)benzo[d][1,3]dioxole-5-carboxamide]: 480 pM; `CSc1cc(C)[nH]c(=O)c1CNC(=O)c1cc(Cl)c2c(c1C)OC(C)(C1CCN(CC3CC(F)(F)C3)CC1)O2` (single isomer, unassigned) [Compound 10, isomer 1, 7-chloro-2-(1-((3,3-difluorocyclobutyl)methyl)piperidin-4-yl)-2,4-dimethyl-N-((6-methyl-4-(methylthio)-2-oxo-1,2-dihydropyridin-3-yl)methyl)benzo[d][1,3]dioxole-5-carboxamide]: 560 pM.

With `CSc1cc(C)[nH]c(=O)c1CNC(=O)c1cc(Cl)c2c(c1C)OC(C)(C1CCN(C3CC(F)(F)C3)CC1)O2` (single isomer, unassigned) [Compound 12, isomer 1, 7-chloro-2-(1-(3,3-difluorocyclobutyl)piperidin-4-yl)-2,4-dimethyl-N-((6-methyl-4-(methylthio)-2-oxo-1,2-dihydropyridin-3-yl)methyl)benzo[d][1,3]dioxole-5-carboxamide], half-maximal inhibition (IC50) was put at 740 pM.

Compound `CSc1cc(C)[nH]c(=O)c1CNC(=O)c1cc(Cl)c2c(c1C)OC(C)(C1CCC(N3CCC4(CNC(=O)C4)C3)CC1)O2` (single isomer, unassigned) [Compound 18, isomer 2, 7-chloro-2,4-dimethyl-N-((6-methyl-4-(methylthio)-2-oxo-1,2-dihydropyridin-3-yl)methyl)-2-(4-(8-oxo-2,7-diazaspiro[4.4]nonan-2-yl)cyclohexyl)benzo[d][1,3]dioxole-5-carboxamide] registered a 50% inhibitory concentration (IC50) of 780 pM.

`CSc1cc(C)[nH]c(=O)c1CNC(=O)c1cc(Cl)c2c(c1C)OC(C)([C@H]1CC[C@H](CNC3CC(F)(F)C3)CC1)O2` (single isomer, unassigned) [Compound 40, isomer 1, 7-chloro-2-(4-(((3,3-difluorocyclobutyl)amino)methyl)cyclohexyl)-2,4-dimethyl-N-((6-methyl-4-(methylthio)-2-oxo-1,2-dihydropyridin-3-yl)methyl)benzo[d][1,3]dioxole-5-carboxamide] had an IC50 of 610 pM. Turning to `CSc1cc(C)[nH]c(=O)c1CNC(=O)c1cc(Cl)c2c(c1C)OC(C)([C@H]1CC[C@H](CNC3CC(F)(F)C3)CC1)O2` (single isomer, unassigned) [Compound 40, isomer 2, 7-chloro-2-(4-(((3,3-difluorocyclobutyl)amino)methyl)cyclohexyl)-2,4-dimethyl-N-((6-methyl-4-(methylthio)-2-oxo-1,2-dihydropyridin-3-yl)methyl)benzo[d][1,3]dioxole-5-carboxamide], the IC50 stood at 510 pM.
